From patent US20080004253A1, “Thiazolopyrimidine modulators of TRPV1” (priority 2006, published 2008)
pIC50: −log10 of the molar value.

Columns and labels:
[1] = molecular target: T1, human TRPV1 (Homo sapiens, UniProt Q8NER1); assay: Functional assay: block of capsaicin-induced Ca2+ influx, human assay (hTRPV1/HEK293, FLIPR); assay type: cell-based; conditions: hTRPV1/HEK293 cells, 150 nM capsaicin challenge, Fluo-3 fluorescence; mean; > value = solubility limit in assay medium
T1 construct: expressed in transfected cells; host or cells: HEK293 (hTRPV1/HEK293), zeocin selection
T1 sequence (Q8NER1 whole entry): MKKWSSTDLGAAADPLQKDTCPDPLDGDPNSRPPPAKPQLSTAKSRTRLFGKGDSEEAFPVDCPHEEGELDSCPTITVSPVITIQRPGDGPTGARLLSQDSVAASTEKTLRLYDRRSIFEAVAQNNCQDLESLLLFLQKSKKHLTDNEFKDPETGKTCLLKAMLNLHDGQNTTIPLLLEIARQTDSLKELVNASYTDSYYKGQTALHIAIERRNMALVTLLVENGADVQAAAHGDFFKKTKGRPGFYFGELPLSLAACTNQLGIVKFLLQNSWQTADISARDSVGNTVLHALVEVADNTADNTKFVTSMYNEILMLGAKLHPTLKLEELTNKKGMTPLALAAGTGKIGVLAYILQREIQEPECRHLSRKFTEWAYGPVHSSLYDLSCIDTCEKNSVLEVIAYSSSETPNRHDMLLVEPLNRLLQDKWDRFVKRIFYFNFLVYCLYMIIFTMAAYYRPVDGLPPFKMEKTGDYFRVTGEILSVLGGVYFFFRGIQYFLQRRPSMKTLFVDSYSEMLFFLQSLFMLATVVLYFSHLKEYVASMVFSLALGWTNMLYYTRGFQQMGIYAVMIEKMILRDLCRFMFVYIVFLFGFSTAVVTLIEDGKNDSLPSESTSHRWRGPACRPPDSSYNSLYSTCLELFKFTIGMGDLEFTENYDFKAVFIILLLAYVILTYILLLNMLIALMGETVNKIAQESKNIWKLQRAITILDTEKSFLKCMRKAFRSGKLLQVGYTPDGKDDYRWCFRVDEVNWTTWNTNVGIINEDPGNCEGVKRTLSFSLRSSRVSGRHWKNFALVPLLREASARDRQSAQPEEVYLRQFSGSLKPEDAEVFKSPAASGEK
Description: (§1) Functional assay: block of capsaicin-induced Ca^2+ influx
(§2) HEK293 cells were transfected with human TRPV1 cloned in pcDNA3.1zeo(+) using the Effectene non-liposomal lipid based transfection kit (Qiagen) (hTRPV1/HEK293). hTRPV1/HEK293 cells were routinely grown as monolayers under selection in zeocin (200 μg/mL; Invitrogen) in Dulbecco's Modified Eagle Medium (DMEM, Gibco BRL) supplemented with 10% fetal bovine serum, and penicillin/streptomycin (50 units/mL) in 5% CO2 at 37° C. Cells were passaged frequently, every 3-5 days, to avoid overgrowth, depletion of essential medium components, or acidic medium exposure. Cells were passaged using a brief wash in 0.05% trypsin with 1 mM EDTA, followed by dissociation in divalent-free phosphate-buffered saline (Hyclone #SH30028.02). […] The assay buffer was composed of 130 mM NaCl, 2 mM KCl, 2 mM MgCl2, 10 mM HEPES, 5 mM glucose, and either 2 mM or 20 μM CaCl2. On the day of the experiment, the culture medium was replaced with 2 mM calcium assay buffer using an automated plate washer (ELx405; Biotek, VT). […] After loading the cells, the dye solution was replaced with 50 μL/well of 20 μM calcium assay buffer using the ELx405 plate washer. Test compounds (50 μL/well) were added to the plate and incubated for 30 min. […] The IC50 values were determined. […] The contents of the wells were mixed 3 times (40 μL mix volume) immediately after the additions were made. Concentration-dependence of block was determined by exposing each well of cells in duplicate rows of a 96-well plate to a serial dilution of test compound. The concentration series usually started at 10 μM with a three-fold serial decrement in concentration. The magnitude of the capsaicin response was determined by measuring the change in fluo3 fluorescence before and 100 seconds after the addition of the agonist. Data were analyzed using a non-linear regression program (Origin; OriginLab, MA).
(§3) IC50 values shown are the average (mean) of the results obtained. […] Compounds were tested in either the free base or trifluoroacetic acid salt form.

[2] = molecular target: T2, rat TRPV1 (Rattus norvegicus, UniProt O35433); assay: Functional assay: block of capsaicin-induced Ca2+ influx, rat assay (rTRPV1/HEK293, FLIPR); assay type: cell-based; conditions: rTRPV1/HEK293 cells, capsaicin challenge, Fluo-3 fluorescence; mean; > value = solubility limit in assay medium
T2 construct: expressed in transfected cells; host or cells: HEK293 (rTRPV1/HEK293), geneticin selection
T2 sequence (O35433 whole entry): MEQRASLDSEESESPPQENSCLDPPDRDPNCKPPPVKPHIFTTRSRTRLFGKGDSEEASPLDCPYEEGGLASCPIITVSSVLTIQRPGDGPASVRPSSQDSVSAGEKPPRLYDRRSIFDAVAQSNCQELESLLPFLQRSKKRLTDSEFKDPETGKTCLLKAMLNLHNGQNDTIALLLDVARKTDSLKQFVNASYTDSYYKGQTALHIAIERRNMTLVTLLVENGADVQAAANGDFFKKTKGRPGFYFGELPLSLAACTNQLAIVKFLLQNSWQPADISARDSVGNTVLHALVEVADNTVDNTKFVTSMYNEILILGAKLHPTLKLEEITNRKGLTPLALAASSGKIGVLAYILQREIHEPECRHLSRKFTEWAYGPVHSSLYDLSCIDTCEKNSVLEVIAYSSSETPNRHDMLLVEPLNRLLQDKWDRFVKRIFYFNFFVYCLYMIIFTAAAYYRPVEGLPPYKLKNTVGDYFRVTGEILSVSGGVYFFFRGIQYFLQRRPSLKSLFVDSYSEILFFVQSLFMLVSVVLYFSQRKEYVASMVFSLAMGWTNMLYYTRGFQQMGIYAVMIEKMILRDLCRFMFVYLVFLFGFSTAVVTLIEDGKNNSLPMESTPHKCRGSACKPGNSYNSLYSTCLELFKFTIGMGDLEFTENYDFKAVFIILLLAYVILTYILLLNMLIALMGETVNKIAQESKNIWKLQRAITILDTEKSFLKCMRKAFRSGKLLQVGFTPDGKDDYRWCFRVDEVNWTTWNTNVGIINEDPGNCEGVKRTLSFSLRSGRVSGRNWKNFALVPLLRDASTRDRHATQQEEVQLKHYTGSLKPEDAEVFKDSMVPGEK
Description: as §1, §2
This assay was performed similarly to the human assay described above, but using HEK293 cells transfected with rat TRPV1 (rTRPV1/HEK293).
as §3

| SMILES | pIC50 [1] | pIC50 [2] |
| --- | --- | --- |
| Cc1cccc(C)c1Nc1nc2c(Nc3cccc(C(F)(F)F)c3)ncnc2s1 [Example 42, N^2-(2,6-Dimethyl-phenyl)-N^7-(3-trifluoromethyl-phenyl)-thiazolo[5,4-d]pyrimidine-2,7-diamine] | 5.30 | 6.63 |
| CC(C)Nc1nc(Nc2ccc(C(F)(F)F)cc2)c2nc(Nc3c(Cl)cccc3Cl)sc2n1 [Example 101, N^2-(2,6-Dichloro-phenyl)-N^5-isopropyl-N^7-(4-trifluoromethyl-phenyl)-thiazolo[5,4-d]pyrimidine-2,5,7-triamine] | 7.74 | 7.92 |
| FC(F)(F)c1ccc(Nc2nc(NCCN3CCCCC3)nc3sc(Nc4c(Cl)cccc4Cl)nc23)cc1 [Example 180, N^2-(2,6-Dichloro-phenyl)-N^5-(2-piperidin-1-yl-ethyl)-N^7-(4-trifluoromethyl-phenyl)-thiazolo[5,4-d]pyrimidine-2,5,7-triamine] | 6.91 | 7.49 |
| Cc1cccc(C)c1Nc1nc2c(Nc3ccc(I)cc3)ncnc2s1 [Example 137, N^2-(2,6-Dimethyl-phenyl)-N^7-(4-iodo-phenyl)-thiazolo[5,4-d]pyrimidine-2,7-diamine] | 6.65 | 7.32 |
| Cc1cccc(C)c1Nc1nc2c(Nc3ccc(NS(C)(=O)=O)cc3)ncnc2s1 [Example 175, N-{4-[2-(2,6-Dimethyl-phenylamino)-thiazolo[5,4-d]pyrimidin-7-ylamino]-phenyl}-methanesulfonamide] | < 4.70 | < 4.70 |
| Cc1cccc(C)c1Nc1nc2c(Nc3ccc(C#N)cc3)ncnc2s1 [Example 31, 4-[2-(2,6-Dimethyl-phenylamino)-thiazolo[5,4-d]pyrimidin-7-ylamino]-benzonitrile] | 7.40 | 7.48 |
| Cc1nc(Nc2ccccc2)c2nc(Nc3c(Cl)cccc3Cl)sc2n1 [Example 170, N^2-(2,6-Dichloro-phenyl)-5-methyl-N^7-phenyl-thiazolo[5,4-d]pyrimidine-2,7-diamine] | < 4.70 | < 4.70 |
| FC(F)(F)c1ccc(Nc2ncnc3sc(Nc4c(Cl)cccc4C(F)(F)F)nc23)cn1 [Example 19, N^2-(2-Chloro-6-trifluoromethyl-phenyl)-N^7-(6-trifluoromethyl-pyridin-3-yl)-thiazolo[5,4-d]pyrimidine-2,7-diamine] | 7.13 | 7.51 |
| CS(=O)(=O)c1ccc(Nc2nc(N3CCOCC3)nc3sc(Nc4c(Cl)cccc4Cl)nc23)cc1 [Example 178, N^2-(2,6-Dichloro-phenyl)-N^7-(4-methanesulfonyl-phenyl)-5-morpholin-4-yl-thiazolo[5,4-d]pyrimidine-2,7-diamine] | 6.54 | 7.22 |
| Cc1cccc(C)c1Nc1nc2c(Nc3ccc(F)cc3)ncnc2s1 [Example 144, N^2-(2,6-Dimethyl-phenyl)-N^7-(4-fluoro-phenyl)-thiazolo[5,4-d]pyrimidine-2,7-diamine] | 6.37 | 6.66 |
| Cc1cccc(C)c1Nc1nc2c(Nc3ccc(C(F)(F)F)c(Cl)c3)ncnc2s1 [Example 13, N^7-(3-Chloro-4-trifluoromethyl-phenyl)-N^2-(2,6-dimethyl-phenyl)-thiazolo[5,4-d]pyrimidine-2,7-diamine] | 6.95 | 7.47 |
| CSc1ccccc1Nc1nc2c(Nc3ccc(C(F)(F)F)cc3)ncnc2s1 [Example 196, N^2-(2-Methylsulfanyl-phenyl)-N^7-(4-trifluoromethyl-phenyl)-thiazolo[5,4-d]pyrimidine-2,7-diamine] | 7.19 | 7.43 |
| Cc1nc(Nc2ccc(SC(F)(F)F)c(Cl)c2)c2nc(Nc3c(Cl)cccc3Cl)sc2n1 [Example 135, N^7-(3-Chloro-4-trifluoromethylsulfanyl-phenyl)-N^2-(2,6-dichloro-phenyl)-5-methyl-thiazolo[5,4-d]pyrimidine-2,7-diamine] | 6.69 | 6.95 |
| Cc1ccccc1Nc1nc2c(Nc3ccc(C(F)(F)F)cc3)ncnc2s1 [Example 17, N^2-o-Tolyl-N^7-(4-trifluoromethyl-phenyl)-thiazolo[5,4-d]pyrimidine-2,7-diamine] | 7.15 | 7.72 |
| CNCCNc1nc(Nc2ccc(C(F)(F)F)cc2)c2nc(Nc3c(Cl)cccc3Cl)sc2n1 [Example 181, N^2-(2,6-Dichloro-phenyl)-N^5-(2-methylamino-ethyl)-N^7-(4-trifluoromethyl-phenyl)-thiazolo[5,4-d]pyrimidine-2,5,7-triamine] | 5.19 | < 4.70 |
| CC1CCCCN1c1nc(Nc2ccc(C(F)(F)F)cc2)c2nc(Nc3c(Cl)cccc3Cl)sc2n1 (racemic) [Example 191, (racemic)-N^2-(2,6-Dichloro-phenyl)-5-(2-methyl-piperidin-1-yl)-N^7-(4-trifluoromethyl-phenyl)-thiazolo[5,4-d]pyrimidine-2,7-diamine] | 7.85 | 7.25 |
| C[C@H]1COCCN1c1nc(Nc2ccc(C(F)(F)F)cc2)c2nc(Nc3c(Cl)cccc3Cl)sc2n1 [Example 192, (3S)-N^2-(2,6-Dichloro-phenyl)-5-(3-methyl-morpholin-4-yl)-N^7-(4-trifluoromethyl-phenyl)-thiazolo[5,4-d]pyrimidine-2,7-diamine] | 7.20 | 7.72 |
| CN(C)S(=O)(=O)c1ccc(Nc2ncnc3sc(Nc4ccccc4Cl)nc23)cc1 [Example 113, 4-[2-(2-Chloro-phenylamino)-thiazolo[5,4-d]pyrimidin-7-ylamino]-N,N-dimethyl-benzenesulfonamide] | 7.42 | 7.77 |
| Cc1cccc(C)c1Nc1nc2c(Nc3ccc(Cl)c(Cl)c3)ncnc2s1 [Example 34, N^7-(3,4-Dichloro-phenyl)-N^2-(2,6-dimethyl-phenyl)-thiazolo[5,4-d]pyrimidine-2,7-diamine] | < 5.18 | < 5.18 |

The remaining lines, values ahead:

| pIC50 [1] | pIC50 [2] | SMILES |
| --- | --- | --- |
| 6.04 | 6.62 | O=S(=O)(c1ccc(Nc2ncnc3sc(Nc4c(Cl)cncc4Cl)nc23)cc1)N1CCCC1 [Example 214, N^2-(3,5-Dichloro-pyridin-4-yl)-N^7-[4-(pyrrolidine-1-sulfonyl)-phenyl]thiazolo[5,4-d]pyrimidine-2,7-diamine] |
| 5.61 | 5.77 | Cc1nc(Nc2ccc(C(F)(F)F)cc2)c2nc(Nc3ccccc3[N+](=O)[O-])sc2n1 [Example 206, 5-Methyl-N^2-(2-nitro-phenyl)-N^7-(4-trifluoromethyl-phenyl)-thiazolo[5,4-d]pyrimidine-2,7-diamine] |
| 5.36 | 6.00 | Cc1nc(NC2CCC(C(C)(C)C)CC2)c2nc(Nc3c(C)cccc3C)sc2n1 (mixture of isomers) [Example 249, N^7-(4-tert-Butyl-cyclohexyl)-N^2-(2,6-dimethyl-phenyl)-5-methyl-thiazolo[5,4-d]pyrimidine-2,7-diamine] |
| 7.82 | 8.10 | Fc1cc(Nc2ncnc3sc(Nc4c(Cl)cccc4Cl)nc23)ccc1C(F)(F)F [Example 215, N^2-(2,6-Dichloro-phenyl)-N^7-(3-fluoro-4-trifluoromethyl-phenyl)-thiazolo[5,4-d]pyrimidine-2,7-diamine] |
| 6.59 | 6.61 | CS(=O)(=O)c1ccccc1Nc1nc2c(Nc3ccc(C(F)(F)F)cc3)ncnc2s1 [Example 201, N^2-(2-Methanesulfonyl-phenyl)-N^7-(4-trifluoromethyl-phenyl)-thiazolo[5,4-d]pyrimidine-2,7-diamine] |
| 6.08 | 6.72 | CS(=O)(=O)c1ccc(Nc2ncnc3sc(Nc4c(Cl)cc(C(N)=O)cc4Cl)nc23)cc1 [Example 237, 3,5-Dichloro-4-[7-(4-methanesulfonyl-phenylamino)-thiazolo[5,4-d]pyrimidin-2-ylamino]-benzamide] |
| 4.78 | 4.90 | Cc1nc(Nc2ccc(C(F)(F)F)cc2)c2nc(Nc3cccc4nsnc34)sc2n1 [Example 205, N^2-Benzo[1,2,5]thiadiazol-4-yl-5-methyl-N^7-(4-trifluoromethyl-phenyl)-thiazolo[5,4-d]pyrimidine-2,7-diamine] |
| 6.98 | 7.12 | FC(F)(F)c1ccc(Nc2ncnc3sc(Nc4ccccc4C(F)(F)F)nc23)cn1 [Example 219, N^2-[2-(Trifluoromethyl)phenyl]-N^7-[6-(trifluoromethyl)pyridin-3-yl][1,3]thiazolo[5,4-d]pyrimidine-2,7-diamine] |
